{"source": "patent US20260226101A1", "about": "“PEPTIDE WITH ANTI-INFLAMMATORY AND ANTI-MICROBIAL ACTIVITY” (priority 2023, published 2026)", "key": {"[1]": {"system": "E. coli ATCC 8739-induced septic peritonitis", "experiment": "E. coli-induced septic peritonitis model", "format": "in vivo, BALB/c mice", "conditions": "for Mice alive: 18 h after infection", "method": "Bacterial strain of E. coli ATCC 8739™ were maintained in our laboratory and used for the mouse sepsis model. The strain was previously stored at −80° C. in a Luria Bertani (LB) broth with 15-20% of glycerol. Single colonies from viable, growing Luria-Bertani (LB) agar plates were transferred to sterile liquid LB medium (containing 10 g tryptone, 10 g NaCl, and 5 g yeast extract per liter) and cultivated aerobically in 50-ml volumes at 37° C. in an orbital shaker for 24 h at 37° C. These cultures were transferred to 500 ml of fresh LB medium for another 12 h. The optical density (OD) of the suspension was adjusted to 0.3 (exponential phase) using a spectrophotometer. Such OD corresponds to*10^8 colony-forming units (CFU)/mL. When bacteria were in the log phase of growth, the suspension was harvested by centrifugation at 1500×g for 5 min at 4° C.; the supernatant was discarded and washed and resuspended three times in phosphate-buffered saline (PBS) at pH 7.4 and mixed by vortexing to achieve a concentration of approximately 1×10^8 colony-formation units (CFU) per milliliter. Finally, the bacterial suspensions were incubated in a water bath at 100° C. for 30 min to inactivate the cells. One hundred microliters of the suspension were serially diluted with sterile saline solution, plated on sheep blood agar plates, and incubated for 18 hours for determination of the bacterial concentration. The rest of the culture suspension was stored at 4° C. until use. Just before the intraperitoneal injection, the bacterial suspension was adjusted to a concentration of 1×10^8 colony forming units (CFU) per 0.1 mL with normal saline solution/PBS.\nThis study was carried out within an animal containment BSL2 facility. The animals were infected with suspensions containing […] E. coli 8739™ (200 μL) inoculated intraperitoneally. The day of challenge was designated as day 1 of the experiment and considers it as 0 hr. [Wendy E. Walker, 2021; Komal Dolasia et al., 2018]\nMice received an intraperitoneal injection of E. coli ATCC 8739, 5.0×10^8 CFU per mouse in 200 μL to induce septic peritonitis as mentioned above. After 2 h of the E. coli infection, mice (n=6) were treated intravenously with two test doses of IS 111 (0.6 mg/kg & 1.2 mg/kg) in treatment groups. Control animals received 200 μL of normal saline. […] The figure was adopted and modified according to the present study. [Henrique G et al., 2020].\nIn all the animal experiments, IS 111 were administered by intravenous injections respectively; According to the clinical dosage regimen, IS 111 was repeatedly administered at 2 h after the intraperitoneal injection of heat-killed E. coli. The survival of mice was monitored for up to 5 days. In each group the half of the animals were killed after 18 hours. And in other subset of the animals, IS 111 at two doses 0.6 & 1.2 mg/kg were injected IV daily for 3 days following infection. The survival of mice was monitored for up to 18 h and the other half of the animals are continued for the survival monitored up to 5 days.\nIn the survival study, survival rates were determined over a period of 5 d with assessment every 12 h, by setting the day 0 from 0 to 18 h after surgery and continuing observation until […]. In each group the half of the animals were killed after 18 hours, in another half subset of animals was followed for 5 days for survival assessment after sepsis induction to verify mortality rates. IS 111 at two doses 0.6 & 1.2 mg/kg were injected IV daily 24 h for 3 days following the E. coli Infection.\nThe physical activity of the mice was recorded independently by two independent observers who were blinded to treatment before sampling as previously described. In this study predetermined grading system was used with a scale of 1 (healthy) to 5 (agony). […]"}, "[2]": {"system": "LPS-stimulated RAW 264.7 cells", "experiment": "ELISA of cytokines in supernatants of LPS-stimulated RAW 264.7 cells", "format": "cell-based, murine", "method": "Cells were sub-cultured by scraping when plates reached 70-80% confluence with a 1:5 ratio in fresh medium. RAW 264.7 cells were plated at density of 1×10^5 cells and allowed for attachment. The growth medium was then replaced with fresh medium without FBS and incubated for 6 h then cells were pre-treated with different concentrations of synthetic peptides: IS 111 (3.12, 6.25, 12.5, 25, 50 and 100 μg/mL) or dexamethasone (500 μg/mL) as a positive control for 1 h followed by stimulation of LPS (1 μg/mL) and then further incubated for 18 h and were allowed to adhere. After 18 h of incubation, plates were centrifuged for 6 min at 400×g and the supernatants and cell lysates were collected and kept frozen at −80° C. until used for further analysis.\nAt the end of the treatment period, cells were harvested in RNA isoplus reagent for subsequent cellular RNA extraction, for RTqPCR. The pro & anti-inflammatory cytokine production in supernatants was estimated by using ELISA, RTqPCR and western blotting in cell lysates. The experiment was carried out in triplicate. LPS and Dexamethasone were used as the controls.\nThe following treatments were applied for the anti-inflammatory test: • (1) The negative control: RAW 264.7 cells without being induced by lipopolysaccharide; no drug treatment. • (2) The positive control: RAW264.7 cells that were induced by […] of lipopolysaccharide (LPS group). • (3) The mixture of Synthetic peptides: IS 111 (3.12, 6.25, 12.5, 25, 50 and 100 μg/ml), LPS (1 μg/mL) and RAW 264.7 cells; and • (4) The standard positive control: The mixture of dexamethasone (500 μg/mL), LPS (1 μg/mL), and RAW 264.7 cells.\nThe levels of IL-6, TNF-α, IL-1β, and IL-10 in the supernatants of RAW 264.7 cell cultures were determined using an ELISA kit, according to the manufacturer's instructions (R&D Systems)."}, "[3]": {"conditions": "0.6 mg/kg IV, 18 hr after induction of septic shock"}, "[4]": {"conditions": "18 h, comparable to control mice"}, "[5]": {"conditions": "serum 18 h, therapeutic administration"}, "[6]": {"conditions": "3.12-100 μg/mL pretreatment, LPS 18 h, vs LPS group"}}, "note": "Ends that are not written are not given here.", "data": [{"substance": "FAKKFAK [IS 111, Phe-Ala-Lys-Lys-Phe-Ala-Lys]", "values": [{"measurement": "Lung and liver injuries (histopathology)", "setting": "[1]; 0.6 mg/kg IV, 18 h", "result": "reduces the injuries to moderate extent"}, {"measurement": "Activity upon stimulation", "setting": "[1]; [3]", "result": "Sluggish activity. Animals"}, {"measurement": "Conjunctivitis", "setting": "[1]; [3]", "result": "Mild (Usually serous"}, {"measurement": "Hair coat", "setting": "[1]; [3]", "result": "Moderately ruffled coats"}, {"measurement": "Mice alive", "setting": "[1]; 0.6 mg/kg", "result": 50, "unit": "%"}, {"measurement": "Lymphocyte numbers", "setting": "[1]; [4]", "result": "restored"}, {"measurement": "WBC numbers", "setting": "[1]; [4]", "result": "restored"}, {"measurement": "Neutrophil numbers", "setting": "[1]; 18 h, vs septic mice", "result": "marginally higher"}, {"measurement": "Mice alive", "setting": "[1]; […]", "result": 80, "unit": "%"}, {"measurement": "Survival", "setting": "[1]; after 7 days of infection, IS 111 treatment groups", "result": 80, "unit": "%"}, {"measurement": "IL-1b level", "setting": "[1]; [5]", "result": "significantly reduce"}, {"measurement": "IL-6 level", "setting": "[1]; [5]", "result": "significantly reduce"}, {"measurement": "IL-12 p70 level", "setting": "[1]; [5]", "result": "significantly reduce"}, {"measurement": "TNF-α level", "setting": "[1]; [5]", "result": "significantly reduce"}, {"measurement": "Reduction of mortality", "setting": "[1]; vs diseased control animals (normal saline)", "result": 80, "unit": "%"}, {"measurement": "IL-1β production (ELISA)", "setting": "[2]; [6]", "result": "inhibited"}, {"measurement": "IL-6 levels (ELISA)", "setting": "[2]; [6]", "result": "reduced"}, {"measurement": "IL-10 levels (ELISA)", "setting": "[2]; [6]", "result": "significantly increased"}, {"measurement": "TNF-alpha levels (ELISA)", "setting": "[2]; [6]", "result": "significantly reduced"}, {"measurement": "Concentration with better inhibition of TNF-α, IL-1β and IL-6 than 100 μg/mL", "setting": "[2]; LPS induced RAW 264.7", "result": 25, "unit": "µg/mL"}, {"measurement": "NO production", "setting": "[2]; LPS-stimulated RAW cells, summary table", "result": "↓Cytotoxicity; ↓ NO production; ↓"}]}]}
